Measured values from PMC12641067 (Clinical Pharmacology and Therapeutics, 2025).
Read-outs that look alike come from different tables or passages of the source.

Key:
[1] = tested on: OATP1B1; design: method as in ref 18 (a number printed in a supplementary file, which may have a reference list of its own: not looked up in the article's list); details: HEK293, read-out: In vitro OATP1B1 IC50, cited from earlier work
[2] = Population PK model of rifampicin (plasma data); type: in vivo, human; details: population estimate (RSE%)
Protocol: Individual plasma and urine data of GCDCA‐S in healthy subjects were obtained from three clinical studies. Tatosian et al.[18] (study #1) consisted of two occasions: on both occasions, a microdose probe drug cocktail for multiple clinically relevant transporters was administered, with a single oral dose of 600 mg rifampicin co‐administered on the second occasion (n = 6; 3 males, 3 females). Willemin et al.[22] (study #2) was a two‐phase, cross‐over study with a 21‐day washout period between the two phases. […] Study #3 consists of unpublished data from the same study design as reported by Willemin et al. (n = 12; 12 males).[22]
Models were evaluated using visual predictive check (VPC) plots, goodness‐of‐fit (GOF) plots, parameter uncertainty, and changes in objective function. Model visualization and simulations were conducted in MATLAB 2024a (MathWorks, Natick, MA, USA) and Graph Pad Prism 10.2.2 (GraphPad software, La Jolla, CA, USA).
The structural model for rifampicin was based on our previous report,[33] and represents a one‐compartment model with zero‐order absorption and linear elimination.
The models for rifampicin, probenecid, and GCDCA‐S incorporated both inter‐individual variability for a number of model parameters (assuming log‐normal distribution) and residual unexplained variability (using a combination of proportional and additive error models).

[3] = tested on: OATP1B; details: substrate CP-I, 600 mg, read-out: In vivo OATP1B Ki,u, cited from earlier work
[4] = tested on: OATP1B1; design: method as in ref 22 (a number printed in a supplementary file, which may have a reference list of its own: not looked up in the article's list); details: substrate CP-I, 150 – 600 mg, read-out: In vivo OATP1B Ki,u; cited from earlier work
[5] = target: T1, OATP1B3 (Homo sapiens, UniProt Q9NPD5); assay: In vivo OATP1B3 inhibition estimated by POP-PK modeling of GCDCA-S data; design: hepatic OATP1B3 and renal OAT3 transporters; from tissue; host or cells: liver (hepatocytes) of healthy human subjects, in vivo; details: GCDCA-S as substrate, rifampicin 600 mg, population estimate (RSE%), read-out: K i,unbound,OATP1B3
T1 sequence (Q9NPD5 1-702): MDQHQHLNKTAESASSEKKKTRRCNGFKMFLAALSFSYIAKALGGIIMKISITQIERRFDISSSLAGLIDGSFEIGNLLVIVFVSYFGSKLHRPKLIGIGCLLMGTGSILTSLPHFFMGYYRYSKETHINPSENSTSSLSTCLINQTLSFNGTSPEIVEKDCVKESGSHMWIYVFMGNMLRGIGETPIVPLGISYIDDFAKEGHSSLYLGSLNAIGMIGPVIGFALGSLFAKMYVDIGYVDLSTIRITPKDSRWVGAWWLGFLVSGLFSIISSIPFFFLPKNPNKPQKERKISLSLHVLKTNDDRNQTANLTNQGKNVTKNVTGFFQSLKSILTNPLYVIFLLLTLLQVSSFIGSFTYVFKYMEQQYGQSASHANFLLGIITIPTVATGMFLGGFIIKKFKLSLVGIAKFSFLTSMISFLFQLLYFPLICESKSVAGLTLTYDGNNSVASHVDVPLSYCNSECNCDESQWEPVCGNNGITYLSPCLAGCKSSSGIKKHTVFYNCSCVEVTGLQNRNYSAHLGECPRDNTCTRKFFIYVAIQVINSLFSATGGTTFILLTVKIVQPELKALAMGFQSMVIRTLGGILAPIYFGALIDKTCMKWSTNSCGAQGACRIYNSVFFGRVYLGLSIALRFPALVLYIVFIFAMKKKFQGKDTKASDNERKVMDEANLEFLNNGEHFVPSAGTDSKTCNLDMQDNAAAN

[6] = target: T1, OATP1B3; design: method as in ref 18 (a number printed in a supplementary file, which may have a reference list of its own: not looked up in the article's list); details: HEK293, read-out: In vitro OATP1B3 IC50, cited from earlier work

clearance ([2]; both sexes, human, plasma, oral, 600 mg, read-out: CL RIF (converted)): 112 mL/min
Tk0 RIF ([2]; duration of zero-order absorption): 0.84 (41) h
V RIF [2]: 35 (5) L
Tlag RIF ([2]; single oral dose 600 mg): 0.56 (20) h
Ki [5]: 9 nM
SMILES: CO[C@H]1/C=C/O[C@@]2(C)Oc3c(C)c(O)c4c(O)c(c(/C=N/N5CCN(C)CC5)c(O)c4c3C2=O)NC(=O)/C(C)=C\C=C\[C@H](C)[C@H](O)[C@@H](C)[C@@H](O)[C@@H](C)[C@H](OC(C)=O)[C@@H]1C [RIF, rifampicin]
IC50 ([1]; substrate CP-I): 610 nM
IC50 ([1]; substrate GCDCA-S): 170 nM
Ki ([3]; ref 8): 130 nM
Ki ([3]; ref 19): 20 nM
Ki ([3]; ref 21): 100 nM
Ki ([3]; ref 23): 38 nM
Ki ([3]; ref 24): 53 nM
Ki [4]: 140 nM
IC50 ([6]; substrate CP-I): 570 nM
IC50 ([6]; substrate GCDCA-S): 280 nM
